Among the data in US20230312524A1, “ALPHA1A-ADRENERGIC RECEPTOR AGONISTS AND METHODS OF USE” (CuraSen Therapeutics, Inc., priority 2020, published 2023) are Emax and EC50 values, retold here.

The structures appear in SMILES notation. pEC50: −log10 of the molar value.

The test has as its target T1, α1A-ARS (Homo sapiens, UniProt P35348).
T1 sequence (P35348 1-466): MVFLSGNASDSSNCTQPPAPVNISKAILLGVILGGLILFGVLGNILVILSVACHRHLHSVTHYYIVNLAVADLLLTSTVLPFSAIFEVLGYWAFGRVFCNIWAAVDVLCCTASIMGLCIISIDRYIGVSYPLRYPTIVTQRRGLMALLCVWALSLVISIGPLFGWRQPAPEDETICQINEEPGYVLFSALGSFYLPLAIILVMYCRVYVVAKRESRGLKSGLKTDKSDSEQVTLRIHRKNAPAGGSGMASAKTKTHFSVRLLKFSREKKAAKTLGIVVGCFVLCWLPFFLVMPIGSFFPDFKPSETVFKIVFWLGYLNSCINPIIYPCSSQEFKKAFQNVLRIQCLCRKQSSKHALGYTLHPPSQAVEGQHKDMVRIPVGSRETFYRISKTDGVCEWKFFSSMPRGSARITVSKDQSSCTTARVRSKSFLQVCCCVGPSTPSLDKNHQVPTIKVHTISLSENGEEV
The test is described as follows: Calcium flux assay (Calcium 6 dye) in cells expressing an α1-AR. The class given is cell-based. The note with it: calcium flux, α1A-AR; for Emax: maximum effect relative to full agonist epinephrine, read-out: Average Emax; for pEC50: mean of at least three experiments, read-out: Average PEC50. The text has this:
Calcium flux experimental design: alpha-1 adrenergic receptors (α1-ARs) couple to Gq proteins, which results in downstream activation of phospholipase C and release of calcium from intracellular stores. Intracellular calcium increase upon α1-AR activation can be detected by Calcium 6 dye.
Cell preparation: cells expressing an α1-AR were washed in warmed phosphate-buffered saline to remove medium and harvested using versene (Caisson Labs, catalog #EDL01).
Media was removed from cells by tapping plates upside-down on absorbent wipes, followed by 15 second upside-down 50×g centrifugation, again on absorbent wipes. 12 μL cell dye solution was added to cells using a reagent dispenser (Integra viaFILL) and cells were incubated for 90 minutes at 37° C., 5% CO2.
Compound preparation: candidate alpha-adrenergic compounds, dissolved to 10 mM in DMSO, were diluted in_assay buffer (HBSS/H-EPES containing 2 mM CaCl2 and 2 mM probenecid sodium salt). […] On all assay plates, vehicle (DMSO) and positive control (10 μM epinephrine) conditions were included on the plate, as well as a dose-response curve of epinephrine. […] 384 well compound plates were centrifuged briefly at 250×g, sealed (Axygen PCR-SP) and incubated at 37° C. until the 90 minute cell dye incubation was complete.
Calcium 6 stained cells and 384 well compound plates were loaded onto the Flexstation and incubated on the machine for 5 minutes before initiating the assay.
For each assay well, baseline Calcium 6 fluorescence was detected for 18 seconds prior to 12 μL compound addition at 12 μL per second. Changes in Calcium 6 fluorescence were detected for a further 22 seconds, for a total read time of 40 seconds. All detection was performed with medium gain sensitivity, bottom read, with 6 flashes per read.
Data analysis: for calcium flux, analysis of maximum change from baseline over the 40-second read time was determined using Softmax Pro and data was exported as raw text files. Potency estimates (EC50) were derived from dose response curves (maximum change from baseline versus the log concentration of test compound) fit by four-parameter nonlinear regression using Graphpad Prism. Efficacy was determined by comparing the magnitude of the test compound signal window (fitted curve max−min) with the signal window of the full agonist control, epinephrine. […] All experiments were repeated a minimum of three times, with the average (mean) potency and maximum effect relative to the within-plate full agonist dose-response comparator reported.

In general, Emax refers to the maximal effect, on the per cent scale that the assay sets. Consider `Cn1nccc1-c1ccc(CC2=NCCN2)cc1Cl` [Compound 1], for which the Emax was under 20% and the pEC50 is under 6.00.

In the case of `Clc1cc(CC2=NCCN2)ccc1-c1ccn[nH]1` [Compound 2], the Emax is under 20% and the pEC50 is under 6.00.

Take `Clc1cc(CC2=NCCN2)ccc1-c1ncco1` [Compound 3]: the Emax was under 20% and the pEC50 is under 6.00.

With `Cc1csc(-c2ccc(CC3=NCCN3)cc2Cl)n1` [Compound 4], the Emax was under 20% and the pEC50 was under 6.00.

Take `Cc1c(CC2=NCCN2)cccc1-c1ncco1` [Compound 5]: the Emax lay within 21 to 60% and the pEC50 was 6.01 to 8.00.

As to `Cc1c(CC2=NCCN2)cccc1-c1cn[nH]c1` [Compound 6], the Emax is 21 to 60% and the pEC50 was 6.01 to 8.00.

`Cc1c(CC2=NCCN2)cccc1-c1ccnn1C` [Compound 7]: the Emax fell in the range of 21 to 60% and the pEC50 was 6.01 to 8.00.

Regarding `Cc1csc(-c2cccc(CC3=NCCN3)c2C)n1` [Compound 8], the Emax is under 20% and the pEC50 is under 6.00.

`Clc1ccc(CC2=NCCN2)cc1-c1ncco1` [Compound 10]: the Emax lay in the range of 21 to 60% and the pEC50 is 6.01 to 8.00.

For the molecule `Cn1nccc1-c1cc(CC2=NCCN2)ccc1Cl` [Compound 11], the Emax was under 20% and the pEC50 was under 6.00.

In the case of `Cc1c(CC2=NCCN2)ccc(-c2ncco2)c1Cl` [Compound 12], the maximum response (Emax) is under 20% and the pEC50 was 6.01 to 8.00.

For `Clc1ccc(CC2=NCCN2)c(-c2ncco2)c1` [Compound 13], the Emax was over 61% and the pEC50 was 6.01 to 8.00.

Take `Cc1c(CC2=NCCN2)ccc(Cl)c1-c1ncco1` [Compound 14]: the Emax was 21 to 60% and the pEC50 is 6.01 to 8.00.

Turning to `Cc1c(CC2=NCCN2)ccc(Cl)c1-c1ccnn1C` [Compound 15], the Emax is under 20% and the pEC50 is under 6.00.

In the case of `Cn1nccc1-c1cc(Cl)ccc1CC1=NCCN1` [Compound 16], the Emax fell in the range of 21 to 60% and the pEC50 is 6.01 to 8.00.

Turning to `Cc1c(CC2=NCCN2)ccc(Cl)c1-c1cn[nH]c1` [Compound 17], the Emax is under 20% and the pEC50 is under 6.00.

Take `Clc1ccc(CC2=NCCN2)c(-c2ccccn2)c1` [Compound 18]: the maximal effect (Emax) is over 61% and the pEC50 is 6.01 to 8.00.

Turning to `Clc1ccc(CC2=NCCN2)c(-c2cccnc2)c1` [Compound 19], the maximal effect (Emax) is over 61% and the pEC50 was under 6.00.

On to `Cc1c(CC2=NCCN2)cccc1-c1cc[nH]n1` [Compound 20], for which the Emax was in the range of 21 to 60% and the pEC50 was 6.01 to 8.00.

On to `Clc1ccc(CC2=NCCN2)c(-n2cccn2)c1` [Compound 21], for which the Emax was over 61% and the pEC50 was 6.01 to 8.00.

Regarding `Cc1c(CC2=NCCN2)cccc1-n1cccn1` [Compound 22], the Emax is 21 to 60% and the pEC50 is 6.01 to 8.00.

On to `Clc1ccc(CC2=NCCN2)cc1-n1cccn1` [Compound 23], for which the Emax lay in the range of 21 to 60% and the pEC50 is 6.01 to 8.00.

For the molecule `Cc1csc(-c2cc(Cl)ccc2CC2=NCCN2)n1` [Compound 24], the Emax is 21 to 60% and the pEC50 was 6.01 to 8.00.

As for `Clc1ccc(CC2=NCCN2)c(-c2nccs2)c1` [Compound 25], the Emax is over 61% and the pEC50 was over 8.01.

As for `Cc1c(CC2=NCCN2)cccc1-c1cccs1` [Compound 26], the maximal effect (Emax) was under 20% and the pEC50 was 6.01 to 8.00.

For `Clc1ccc(CC2=NCCN2)c(-c2cnccn2)c1` [Compound 27], the Emax is 21 to 60% and the pEC50 is 6.01 to 8.00.

Turning to `Clc1ccc(CC2=NCCN2)c(-c2cccs2)c1` [Compound 28], the Emax was over 61% and the pEC50 is over 8.01.

Turning to `Cc1c(CC2=NCCN2)cccc1-c1ccco1` [Compound 29], the Emax lay within 21 to 60% and the pEC50 was 6.01 to 8.00.
